Results reported in US10206907B2, “Compounds useful for the treatment of degenerative and inflammatory diseases” (GALAPAGOS NV, priority 2008, dated 2019).

Biological target: Recombinant human JAK1 catalytic domain (Homo sapiens (Human), UniProt P23458)
Test: JAK1 inhibition assay
Type: biochemical
Conditions: semi-quantitative score
Experimental: Plates were washed 6 times with 300 μL per well of a 75 mM phosphoric acid solution and the bottom of the plates was sealed. 40 μL/well of Microscint-20 was added, the top of the plates was sealed and readout was performed using the Topcount (Perkin Elmer). Kinase activity was calculated by subtracting counts per minute (cpm) obtained in the presence of a positive control inhibitor (10 μM staurosporine) from cpm obtained in the presence of vehicle. The ability of a test compound to inhibit this activity was determined as: Percentage inhibition=((cpm determined for sample with test compound present−cpm determined for sample with positive control inhibitor) divided by (cpm determined in the presence of vehicle−cpm determined for sample with positive control inhibitor))*100%.
Dose dilution series were prepared for the compounds enabling the testing of dose-response effects in the JAK1 assay and the calculation of the IC50 for each compound.

Chain of Recombinant human JAK1 catalytic domain (P23458 850-1154): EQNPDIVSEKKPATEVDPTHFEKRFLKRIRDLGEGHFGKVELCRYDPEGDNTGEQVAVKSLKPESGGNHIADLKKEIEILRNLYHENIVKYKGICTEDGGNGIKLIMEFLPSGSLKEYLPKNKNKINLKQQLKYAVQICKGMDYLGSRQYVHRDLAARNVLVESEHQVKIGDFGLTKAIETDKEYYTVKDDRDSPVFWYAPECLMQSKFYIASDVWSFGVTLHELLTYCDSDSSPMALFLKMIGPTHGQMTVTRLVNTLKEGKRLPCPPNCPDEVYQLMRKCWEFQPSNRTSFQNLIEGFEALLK

SMILES | IC50 [µM]
O=C(Nc1nc2cccc(-c3cccc(CN4CCOCC4)c3)n2n1)C1CC1 [Compound 2, N-(5-(3-(morpholinomethyl)phenyl)-[1,2,4]triazolo[1,5-a]pyridin-2-yl)cyclopropanecarboxamide] | 0.101 to 0.5
O=C(Nc1nc2cccc(-c3cnc(N4CCCC4)nc3)n2n1)C1CC1 [Compound 4, N-(5-(2-(pyrrolidin-1-yl)pyrimidin-5-yl)-[1,2,4]triazolo[1,5-a]pyridin-2-yl)cyclopropanecarboxamide] | 0.501 to 1
CN1CCN(c2ccc(-c3cccc4nc(NC(=O)C5CC5)nn34)cn2)CC1 [Compound 5, N-(5-(6-(4-methylpiperazin-1-yl)pyridin-3-yl)-[1,2,4]triazolo[1,5-a]pyridin-2-yl)cyclopropanecarboxamide] | > 1
O=C(Nc1nc2cccc(-c3ccc(N4CCOCC4)nc3)n2n1)C1CC1 [Compound 6, N-(5-(6-morpholinopyridin-3-yl)-[1,2,4]triazolo[1,5-a]pyridin-2-yl)cyclopropanecarboxamide] | > 1
O=C(Nc1nc2cccc(-c3cnc(N4CCOCC4)nc3)n2n1)C1CC1 [Compound 8, N-(5-(2-morpholinopyrimidin-5-yl)-[1,2,4]triazolo[1,5-a]pyridin-2-yl)cyclopropanecarboxamide] | > 1
O=C(Nc1nc2cccc(-c3cnc(N4CCCCC4)nc3)n2n1)C1CC1 [Compound 9, N-(5-(2-(piperidin-1-yl)pyrimidin-5-yl)-[1,2,4]triazolo[1,5-a]pyridin-2-yl)cyclopropanecarboxamide] | > 1
O=C(Nc1nc2cccc(-c3ccc(OCc4cccc(OC(F)(F)F)c4)cc3)n2n1)C1CC1 [Compound 38, N-(5-(4-(3-(trifluoromethoxy)benzyloxy)phenyl)-[1,2,4]triazolo[1,5-a]pyridin-2-yl)cyclopropanecarboxamide] | 0.101 to 0.5
O=C(Nc1nc2cccc(-c3ccc(-c4ccccc4)nc3)n2n1)C1CC1 [Compound 47, N-(5-(6-phenylpyridin-3-yl)-[1,2,4]triazolo[1,5-a]pyridin-2-yl)cyclopropanecarboxamide] | 0.101 to 0.5
O=C(Nc1nc2cccc(-c3ccc(N4CCNCC4)nc3)n2n1)C1CC1 [Compound 61, N-(5-(6-(piperazin-1-yl)pyridin-3-yl)-[1,2,4]triazolo[1,5-a]pyridin-2-yl)cyclopropanecarboxamide] | > 1
O=C(Nc1nc2cccc(-c3ccc(-c4cccnc4)nc3)n2n1)C1CC1 [Compound 68, N-(5-(2,3′-bipyridin-5-yl)-[1,2,4]triazolo[1,5-a]pyridin-2-yl)cyclopropanecarboxamide] | 0.101 to 0.5
O=C(Nc1nc2cccc(-c3ccc(C(=O)N4CCC(c5ccc(Cl)cc5)CC4)cc3)n2n1)C1CC1 [Compound 86] | < 0.1
O=C(Nc1nc2cccc(-c3ccc(NCCC4CCOCC4)nc3)n2n1)C1CC1 [Compound 93, N-(5-(6-(2-(tetrahydro-2H-pyran-4-yl)ethylamino)pyridin-3-yl)-[1,2,4]triazolo[1,5-a]pyridin-2-yl)cyclopropanecarboxamide] | 0.101 to 0.5
O=C(Nc1nc2cccc(-c3ccc(C(=O)N4CCC(CCN5CCOCC5)CC4)cc3)n2n1)C1CC1 [Compound 94, N-(5-(4-(4-(2-morpholinoethyl)piperidine-1-carbonyl)phenyl)-[l,2,4]triazolo[1,5-a]pyridin-2-yl)cyclopropanecarboxamide] | 0.101 to 0.5
O=C(Nc1nc2cccc(-c3ccnc(N4CCC(CCN5CCOCC5)CC4)c3)n2n1)C1CC1 [Compound 95, N-(5-(2-(4-(2-morpholinoethyl)piperidin-1-yl)pyridin-4-yl)-[1,2,4]triazolo[1,5-a]pyridin-2-yl)cyclopropanecarboxamide] | > 1

Now from value to compound:

IC50 [µM] | SMILES
0.101 to 0.5 | O=C(Nc1ccc(-c2cccc3nc(NC(=O)C4CC4)nn23)cc1)c1ccccc1F [Compound 34, N-(4-(2-(cyclopropanecarboxamido)-[1,2,4]triazolo[1,5-a]pyridin-5-yl)phenyl)-2-fluorobenzamide]
0.101 to 0.5 | O=C(Nc1ccc(-c2cccc3nc(NC(=O)C4CC4)nn23)cc1)c1cnccn1 [Compound 35, N-(4-(2-(cyclopropanecarboxamido)-[1,2,4]triazolo[1,5-a]pyridin-5-yl)phenyl)pyrazine-2-carboxamide]
0.501 to 1 | O=C(Nc1ccc(-c2cccc3nc(NC(=O)C4CC4)nn23)cn1)c1ccccc1 [Compound 44, N-(5-(2-(cyclopropanecarboxamido)-[1,2,4]triazolo[1,5-a]pyridin-5-yl)pyridin-2-yl)benzamide]
0.101 to 0.5 | O=C(Nc1ccc(-c2cccc3nc(NC(=O)C4CC4)nn23)cc1)C1CCCCC1 [Compound 45, N-(4-(2-(cyclopropanecarboxamido)-[1,2,4]triazo[1,5-a]pyridin-5-yl)phenyl)cyclohexanecarbox-amide]
0.101 to 0.5 | COc1cccc(C(=O)Nc2ccc(-c3cccc4nc(NC(=O)C5CC5)nn34)cc2)c1 [Compound 53, N-(4-(2-(cyclopropanecarboxamido)-[1,2,4]triazolo[1,5-a]pyridin-5-yl)phenyl)-3-methoxybenzamide]
0.101 to 0.5 | O=C(Nc1ccc(-c2cccc3nc(NC(=O)C4CC4)nn23)cc1)c1ccccn1 [Compound 55, N-(4-(2-(cyclopropanecarboxamido)-[1,2,4]triazolo[1,5-a]pyridin-5-yl)phenyl)picolinamide]
0.101 to 0.5 | Cc1nc(COc2ccc(-c3cccc4nc(NC(=O)C5CC5)nn34)cc2)c(C)o1 [Compound 63, N-(5-(4-((2,5-dimethyloxazol-4-yl)methoxy)phenyl)-[1,2,4]triazolo[1,5-a]pyridin-2-yl)cyclopropanecarboxamide]
0.101 to 0.5 | Cc1nn(C)cc1S(=O)(=O)Nc1ccc(-c2cccc3nc(NC(=O)C4CC4)nn23)cc1 [Compound 65, N-(5-(4-(1,3-dimethyl-1H-pyrazole-4-sulfonamido)phenyl)-[1,2,4]triazolo[1,5-a]pyridin-2-yl)cyclopropanecarboxamide]
0.101 to 0.5 | O=C(Nc1nc2cccc(-c3ccc(-c4cn[nH]c4)cc3)n2n1)C1CC1 [Compound 67, N-(5-(4-(1H-pyrazol-4-yl)phenyl)-[1,2,4]triazolo[1,5-a]pyridin-2-yl)cyclopropanecarboxamide]
0.101 to 0.5 | CCCc1cc(C(=O)Nc2ccc(-c3cccc4nc(NC(=O)C5CC5)nn34)cc2)n(C)n1 [Compound 69]
0.101 to 0.5 | O=C(Nc1ccc(-c2cccc3nc(NC(=O)C4CC4)nn23)cc1)C1CCC1 [Compound 70, N-(4-(2-(cyclopropanecarboxamido)-[1,2,4]triazolo[1,5-a]pyridin-5-yl)phenyl)cyclobutanecarbox-amide]
0.101 to 0.5 | CCOCC1CCN(C(=O)c2ccc(-c3cccc4nc(NC(=O)C5CC5)nn34)cc2)CC1 [Compound 73]
0.101 to 0.5 | O=C(NCCN1CCCC1)c1ccc(-c2cccc3nc(NC(=O)C4CC4)nn23)cc1 [Compound 80, 4-(2-(cyclopropanecarboxamido)-[1,2,4]lriazoIo[1,5-a]pyridin-5-yl)-N-(2-(pyrrolidin-l-yl)ethyl)benzamide]
0.101 to 0.5 | O=C(NCCCN1CCOCC1)c1ccc(-c2cccc3nc(NC(=O)C4CC4)nn23)cc1 [Compound 81, 4-(2-(cyclopropanecarboxamido)-[1,2,4]triazolo[1,5-a]pyridin-5-yl)-N-(3-morpholinopropyl)benzamide]
